Where “and” joins values, the source holds several entries; their conditions need not be identical. Identical values can stand only once.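 Values below derive from 48-hour exposures of cells grown in 96-well plates, with endpoints linearly interpolated between the two concentrations bracketing the appropriate inhibition level. The concentration for 50% growth inhibition is given as GI50. TGI: concentration producing complete growth inhibition.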
How the values were obtained:
Experiment in all cases: NCI-60 cell line screen, 48 h
786-0 renal = test system: 786-0 renal
COLO 205 colon = test system: COLO 205 colon
HT29 colon = test system: HT29 colon
IGROV1 ovarian = test system: IGROV1 ovarian
MOLT-4 leukemia = test system: MOLT-4 leukemia
OVCAR-4 ovarian = test system: OVCAR-4 ovarian
OVCAR-5 ovarian = test system: OVCAR-5 ovarian
RPMI-8226 leukemia = test system: RPMI-8226 leukemia
SF-268 CNS = test system: SF-268 CNS
SK-OV-3 ovarian = test system: SK-OV-3 ovarian

| SMILES | GI50 (786-0 renal) | TGI (786-0 renal) [µM] | GI50 (COLO 205 colon) [µM] | TGI (COLO 205 colon) | GI50 (HT29 colon) [µM] | TGI (HT29 colon) [µM] | GI50 (IGROV1 ovarian) [µM] | TGI (IGROV1 ovarian) [µM] | GI50 (MOLT-4 leukemia) | TGI (MOLT-4 leukemia) [µM] | GI50 (OVCAR-4 ovarian) [µM] | TGI (OVCAR-4 ovarian) [µM] | GI50 (OVCAR-5 ovarian) [µM] | TGI (OVCAR-5 ovarian) [µM] | GI50 (RPMI-8226 leukemia) [µM] | TGI (RPMI-8226 leukemia) [µM] | GI50 (SF-268 CNS) [µM] | TGI (SF-268 CNS) [µM] | GI50 (SK-OV-3 ovarian) [µM] | TGI (SK-OV-3 ovarian) [µM] |
| --- | --- | --- | --- | --- | --- | --- | --- | --- | --- | --- | --- | --- | --- | --- | --- | --- | --- | --- | --- | --- |
| CCOC(=O)c1cc2c(n1Cc1cccc(OC)c1)-c1oncc1CCC2 | 6.65 µM | > 100 | 0.78 | 23.8 µM | 0.401 | 22.8 | 0.968 | > 100 | 3.18 µM | > 100 | 8.38 | > 100 | 6.31 | > 100 | 1.81 | > 43 | 9.03 | > 100 | 3.48 | > 100 |
| O=C(O)C1OC1(c1cccc(Cl)c1)c1ccccc1Cl (centres undefined) |  | > 100 |  | > 100 µM |  | 64.7 |  | > 100 |  | 82.4 |  | > 100 |  | > 100 |  | 94.8 |  | 47.8 |  | 66.8 |
| Cc1ccc(C(CC(=O)c2ccccc2)C2C(=O)NC(=O)NC2=O)cc1 (centres undefined) | > 100 µM | > 100 | > 100 | > 100 µM | > 100 | > 100 | > 100 | > 100 | > 100 µM | > 100 | > 100 | > 100 | > 100 | > 100 | > 100 | > 100 | > 100 | > 100 | > 100 | > 100 |
| C[C@]12CCc3sc(NCCc4ccccc4)nc3C1=CC[C@@H]1[C@@H]2CC[C@]2(C)C(=O)CC[C@@H]12 | 2.82 µM | 9.61 | 3.03 | 8.77 µM | 2.2 | 8.11 | 2.6 | 6.18 | 2.58 µM | > 100 | 3.93 | > 100 | 4.44 | 65.9 | 1.79 | 5.69 | 4.62 | > 100 | > 100 | > 100 |
| COc1cc2oc3cc(=O)cc4oc(-c5ccccc5)cc(c2c2c1CCC(c1ccccc1)O2)c43 (centres undefined) |  | > 100 |  | 46.1 µM |  | 66.2 |  | > 100 |  | > 100 |  | > 100 |  | > 100 |  | 20.9 |  | > 100 |  | > 100 |
| CC(=O)OC[C@]12CC[C@@H](C(=O)CBr)[C@@H]1[C@H]1CC[C@@H]3[C@@]4(C)CCCNC(C)(C)[C@@H]4CC[C@@]3(C)[C@]1(C)CC2 | 1.65 µM | 3.27 | 3.92 | 17.2 µM | 3.07 | 10.5 | 1.83 | 3.76 | 2.03 µM | 5.43 | 3.89 | 18.9 | 13.5 | 26.6 | 2.36 | 6.69 | 5.98 | 23.9 | 12.6 | 26.1 |
| N#CCCN(CCCN(CCCN(C(=O)Nc1ccccc1)c1ccccc1)C(=O)Nc1ccccc1)C(=O)Nc1ccccc1 | > 100 µM | > 100 | > 100 | > 100 µM |  | > 8.75 | 31.7 | > 100 | 3.95 µM | > 100 |  | > 100 | > 100 | > 100 | 3.89 | > 100 | 74.8 | > 100 | > 100 | > 100 |
| c1cc2n(n1)CCN2 |  | > 7100 |  | > 10000 µM |  | > 10000 |  | > 10000 |  | 9880 |  | > 9780 |  | > 10000 |  | > 10000 |  | 8200 |  | > 7350 |
| O=c1ccn(C2CC(O)C(CO)O2)c(=O)[nH]1 (centres undefined) | > 5000 µM | > 5000 | > 5000 | > 5000 µM | > 5000 | > 5000 | > 5000 | > 5000 | 548 µM and 227 µM | > 5000 | > 5000 | > 5000 | > 5000 | > 5000 | 1190 | > 5000 | > 5000 | > 5000 | > 5000 | > 5000 |
| COc1cc(NC(C)CCCN)c2ncccc2c1 (centres undefined) | 43.8 µM and > 88.2 µM | > 100 |  | 41.2 µM and 64 µM |  | > 95.4 |  | > 100 |  | > 100 |  | > 100 |  | > 100 |  | > 100 |  | > 100 |  | > 100 |
| O=C(CC(=O)C1=CNc2ccccc2S1)C(=O)Nc1ccc(Cl)cc1 |  | > 50 |  | > 50 µM |  | > 50 |  | > 50 |  | > 50 |  | > 50 |  | > 50 |  | > 50 |  | > 50 |  | > 50 |
| COc1ccc2c(=O)cc(-c3ccncc3)oc2c1OC |  | > 100 |  | 30.8 µM |  | > 100 |  | 78.1 |  | 41.7 |  | > 100 |  | > 100 |  | > 100 |  | 91.7 |  | > 100 |
| COC(=O)[C@@]12OC[C@]34[C@H]([C@@H](O)[C@@H]1O)[C@@]1(C)[C@H](O)C(=O)C=C(C)[C@@H]1C[C@H]3OC(=O)C(OC(C)=O)[C@@H]24 (some centres undefined) | 0.026 µM | 0.0889 | 0.0408 | 0.178 µM | 0.0303 | 0.136 | 0.0302 | 0.134 | < 0.0145 µM | 0.0487 | 0.0398 | 0.272 | 0.069 | 0.41 | 0.017 | 0.0396 | 0.0428 | 0.231 | 0.0522 | 1.12 |
| Cc1cc2c(C)nn(Cc3ccccc3)c2c(C(N)=O)c1C |  | > 100 |  | > 100 µM |  | > 100 |  | > 100 |  | > 100 |  | > 100 |  | > 100 |  | > 100 |  | > 100 |  | > 100 |
| Cc1cc(Cl)ccc1Nc1nc(C(F)(F)F)ccc1C(=O)N/N=C/c1ccc(Cl)cc1 | 2.04 µM | 5.74 | 1.63 | 3.37 µM | 3.24 | 10.4 | 3.31 | 13.6 | 0.75 µM | 4.35 | 1.46 | 21.2 | 2.07 | 6.64 | 2.01 | 6.3 | 1.35 | 10.1 | 1.69 | 5.57 |
| O=C1c2cccc(NCCN=Cc3cc([N+](=O)[O-])ccc3O)c2C(=O)c2c(NCCN=Cc3cc([N+](=O)[O-])ccc3O)cccc21 | 7.04 µM | > 100 | 1.78 | 20.2 µM | 1.26 | > 100 | 2.62 | > 100 | 0.648 µM | 16.7 | 2.06 | > 100 | 31.6 | > 100 | 1.03 | 4.35 | 2.42 | > 100 | 18.9 | > 100 |
| CC1OC(n2c3ccccc3c3c4c(c5c6ccccc6[nH]c5c32)C(=O)N(CCN[C@@H]2CCC[C@H]2N)C4=O)CC(O)C1O (some centres undefined) | 2.35 µM | 9.9 | 1.01 | 4.19 µM | 1.33 | 5.46 | 1.87 | 9.68 | 0.747 µM | 4.74 | 1.72 | 7.06 | 3.66 | 11.6 | 1.14 | 2.89 | 1.48 | 8.06 | 2.51 | 9.09 |
| O=C(Nc1ccncc1)C(=O)c1cn(Cc2ccc(Cl)cc2)c2ccccc12 | 0.0533 µM | > 100 | 0.232 | > 22.3 µM | 0.0363 | > 100 | 0.141 | > 100 | 0.064 µM | > 100 | 0.106 | > 100 | 0.223 | > 100 | 0.0416 | > 100 | 0.0775 | > 100 | 0.199 | > 100 |
| CCCc1cc(=O)[nH]c(-n2nc(C)cc2C)n1 | 7.62 µM | > 100 | 8.45 | > 100 µM | 6.68 | 38.5 | 2.31 | > 100 | 3.44 µM | > 100 | 4.68 | > 100 | 28 | > 100 | 5.16 | 28.4 | 3.19 | > 100 | 9.34 | > 100 |
| Cc1cc(NCCN(C(C)C)C(C)C)nc(/N=C(\N)Nc2ccc(Cl)c(C(F)(F)F)c2)n1 | 0.736 µM | 2.06 | 0.164 | 0.305 µM | 0.267 | 0.919 | 0.819 | 2.75 | 0.383 µM | 1.47 | 0.697 | 1.97 | 2.36 | 5.24 | 0.22 | 0.662 | 0.67 | 1.76 | 1.26 | 2.55 |
| O=[N+]([O-])c1ccc2c(c1)Cc1cc(N=Cc3ccc4c(c3)OCO4)ccc1-2 |  | > 100 |  | > 100 µM |  | > 100 |  | > 100 |  | > 100 |  | > 100 |  | > 100 |  | > 100 |  | > 100 |  | > 100 |
| C=CCC1(O)c2ccccc2C(=O)c2c(NCCN(CC(=O)OCC)CC(=O)OCC)cccc21 (centres undefined) | > 100 µM | > 100 | > 100 | > 100 µM | > 100 | > 100 | > 100 | > 100 | 75.6 µM | > 100 | > 100 | > 100 | > 100 | > 100 | 98.5 | > 100 | > 100 | > 100 | > 100 | > 100 |
| O=C1Nc2nc3ccccc3n2N=C2CCCC12 (centres undefined) |  | > 100 |  | > 100 µM |  | > 100 |  | > 100 |  | > 100 |  | > 100 |  | > 100 |  | > 100 |  | > 100 |  | > 100 |
| CNC(=O)c1cccc2cc(Oc3ccnc4cc(OCC5(N)CC5)c(OC)cc34)ccc12 | 2.82 µM | 10.1 | 8.66 | 23.7 µM | 6.73 | 21.1 | 7.63 | 28.2 | 3.49 µM | 21.6 | 2.89 | 21.8 | 6.94 | 19.3 | 12.9 | 39.7 | 6.01 | 24.2 | 12.1 | 26.3 |
| NC(=O)c1ccc(I)c(N=O)c1 | 61.8 µM | > 100 | 21.7 | 44.3 µM | 20.6 | 39.5 | 26.7 | 86.4 | 36.5 µM | > 100 | 17.7 | 43.5 | 71.9 | > 100 | 36.9 | 88.7 | 62.1 | > 100 | > 100 | > 100 |
| CCCCC[C@H]1C/C=C2/C(=O)C=C[C@@H]2C/C=C\CCCC(=O)O[C@@H](CCCCC)C/C=C2/C(=O)C=C[C@@H]2C/C=C\CCCC(=O)O1 | 0.41 µM | 0.811 | 0.25 | 0.671 µM | 0.218 | 0.822 | 0.123 | 0.596 | 0.0828 µM | 0.898 | 0.475 | 2.67 | 0.566 | 1.31 | 0.098 | 0.599 | 0.442 | 1.75 | 0.824 | 2.39 |
| COc1cc(Nc2c(C#N)cnc3cc(OCCCN4CCN(C)CC4)c(OC)cc23)c(Cl)cc1Cl | 2.09 µM | 9.93 | 1.6 | 3.03 µM | 0.689 | 5.38 | 0.279 | 3.09 | 1.91 µM | 7.38 | 4.6 | 21 | 1.19 | 16.2 | 5.32 | 13.9 | 2.34 | 10.3 | 0.884 | 12.3 |

Source: PubChem BioAssay (NCI)
